“And” between values parts separate entries of the source, which are not always exact repeats. Equal values may be shown once.

One experiment relates to MCF10A cells. Description: Cell proliferation, CellTiter-Blue viability assay, MCF10A. As to conditions: 72 h after treatment. Format: cell-based, human. The source says: (§1) HCC70, BT-549, and SUM159 human TNBC cell lines and MCF10A human breast epithelial cell line were purchased from American Type Culture Collection. The murine 4T1-Luc TNBC cells were purchased from PerkinElmer. HCC70, BT-549, and 4T1-Luc cells were maintained in RPMI 1640 medium (Life Technologies Inc., Grand Island, N.Y., USA) and MDA-MB-231-LM2 cells in Dulbecco's modified Eagle's medium/F12 medium (Life Technologies Inc., Grand Island, N.Y., USA), both types of medium supplemented with FBS (10%) and antibiotic/antimycotic (1%). SUM159 cells were maintained in Ham's F-12 medium (Life Technologies Inc., Grand Island, N.Y., USA) supplemented with FBS (5%), antibiotic/antimycotic (1%), insulin (5 μg/mL), and hydrocortisone (1 μg/mL). MCF10A cells were maintained in Dulbecco's modified Eagle's medium/F12 medium supplemented with horse serum (10%), antibiotic/antimycotic (1%), insulin (10 μg/mL), EGF (20 ng/mL), cholera toxin (100 ng/mL), and hydrocortisone (500 μg/mL). All cell lines used in this study were validated by the Characterized Cell Line Core Facility at MD Anderson Cancer Center by using a short tandem repeat method based on primer extension to detect single base deviations.
Cell proliferation was determined using the CellTiter-Blue viability assay as described previously (Gloeckner H, et al. Journal of immunological methods. 2001; 252(1-2):131-138). Cells were seeded in 96-well plates and treated the next day with MELK inhibitors (0-20 μM). At 72 h after MELK inhibitor treatment, optical density at 595 nm was determined.

The next experiment has as its system SUM-159 cells. In words: Cell proliferation, CellTiter-Blue viability assay, SUM-159. Format: cell-based, human. The following applies: 72 h after treatment.
Text: as §1, with “All cell lines used in this study were validated by the Characterized Cell Line Core Facility at MD Anderson Cancer Center by using a short tandem repeat method based on primer extension to detect single base deviations.” left out
(§2) Cell proliferation was determined using the CellTiter-Blue viability assay as described previously (Gloeckner H, et al. Journal of immunological methods. 2001; 252(1-2):131-138). […] At 72 h after MELK inhibitor treatment, optical density at 595 nm was determined.

Another experiment has as its system BT-549 cells. Description: Cell proliferation, CellTiter-Blue viability assay, BT-549. As to conditions: 72 h after treatment. It counts as cell-based, human.
Text: as §1, with “All cell lines used in this study were validated by the Characterized Cell Line Core Facility at MD Anderson Cancer Center by using a short tandem repeat method based on primer extension to detect single base deviations.” left out
as §2

A further experiment has as its target MELK (Homo sapiens (Human), UniProt Q14680). Description: MELK p81-based kinase assay, dose-response (IC50/Ki). Format: biochemical. The method, then: MELK and its substrate, Bcl-G were both recombinantly expressed and purified for use in screening assays (See Methods). […] 10 nM MELK 340 and 10 μM Bcl-GL in kinase assay buffer (50 mM HEPES pH 7.5, 100 mM KCl, 0.1 mM EDTA, 0.1 mM EGTA, 10 mM MgCl2, 10 μg/mL BSA) with 10 mM DTT were added to either 10 μM or 1 μM inhibitor aliquoted into 96 well plates (final 1% DMSO). The mixture was incubated at room temperature for 30 minutes prior to initiation of the assay with 40 μM γ-^32P-ATP (100-1000 CPM/pmol). 40 μL aliquots were spotted onto a p81 96 well filter plate (Unifilter, Whatman), quenched, and washed with 75 mM O-phosphoric acid 8 times, followed by a final wash with acetone for drying. Wells were then filled with scintillation fluid, sealed, and quantified using a MicroBeta TriLux liquid scintillation counter (PerkinElmer). Each inhibitor plate was assayed in duplicate, with at least 4 wells without MELK to establish background and at least 4 wells without inhibitor as a negative control. All readings were corrected for background signal based on the average counts from the wells without enzyme. Percent inhibition, defined as [100−(CPM+inhibitor/average CPM of positive controls)*100], was determined first at 10 μM inhibitor. The top 50 inhibitors were then re-screened in duplicate at 1 μM.
At set time points (0.25, 0.5, 1, 1.5, and 2 min for assays containing 10 nM MELK and 1, 2, 4, 6, and 10 min for assays containing 1 nM MELK), 30 μL aliquots were taken from each reaction and spotted onto 2×2 cm squares of p81 paper. Papers were washed 4 times in 75 mM O-phosphoric acid and once in acetone. Labeled protein was quantified by its associated CPM determined on a Packard 1500 scintillation counter at a sigma value of 2. CPM were translated into nmol ^32P incorporated using Equation 1.
Rates in the presence of each concentration of inhibitor were determined by plotting nmol ^32P incorporated vs. time. These rates were normalized to rates obtained without inhibitor, and data were plotted in terms of fractional activity. In most cases, data were fit to Equation 2. If the IC50 approached the amount of enzyme used in the assay, data were re-fit to the equation for tight-binding inhibitors (the Morrison equation, […]). […] Data were transformed as discussed and fit to Equation 3.
IC50 values were used to estimate each inhibitor's Ki using the Cheng-Prusoff relationship for competitive inhibitors (Equation 4).

Another experiment relates to HCC70 cells. Description: Cell proliferation, CellTiter-Blue viability assay, HCC70. Format: cell-based, human. The following applies: 72 h after treatment.
Text: as §1, with “All cell lines used in this study were validated by the Characterized Cell Line Core Facility at MD Anderson Cancer Center by using a short tandem repeat method based on primer extension to detect single base deviations.” left out
as §2

A further experiment deals with NUAK1 (Homo sapiens (Human), UniProt O60285). Description: Selectivity dose-response kinase assay, NUAK1. It counts as biochemical. As to conditions: 100 μM ATP. The source says:
(§3) CHK1 and NUAK1 were purchased from SignalChem (Vancouver, BC). The NUAK2, CHK, and SAMS peptides were purchased from BioSyn (Lewisville, Tex.). The sequence of CHK and NUAK2 peptides are described elsewhere (Sanchez Y, et al. Science (New York, N.Y.). 1997; 277(5331):1497-1501; Scott J W, et al. Sci Rep. 2015; 5:14436). ERK2, AMPK, CAMKK2, and Ets1 were produced in house as previously described (Waas W F, Dalby K N. The Journal of biological chemistry. 2002; 277(15):12532-12540; Neumann D, et al. Protein Expr Purif. 2003; 30(2):230-237; Waas W F, Dalby K N. Protein Expr Purif. 2001; 23(1):191-197). Apparent KM values for ATP under specific assay conditions were determined using respective experimental conditions in Table 8 with varied ATP (0-1.28 mM). All selectivity dose-response assays were performed in kinase assay buffer (see Inhibitor Library Screen) with 2 mM DTT and 100 μM γ-^32P-ATP with additional conditions listed in Table 8. IC50 and KM^ATP values were subsequently used to calculate Ki (Equation 4). Relative selectivity was determined by comparing Ki^Enzyme/Ki^MELK (termed φ in Table 7). […] Standard error from linear regression data was propagated internally in Prism and taken into account in nonlinear regression to determine IC50 or Ki.

A further experiment addresses AMPK (Rattus norvegicus (Rat), UniProt P54645). Description: Selectivity dose-response kinase assay, AMPK. Format: biochemical. As to conditions: 100 μM ATP.
Text: as §3

In the next experiment the target is ERK2 (Rattus norvegicus (Rat), UniProt P63086). Description: Selectivity dose-response kinase assay, ERK2. Format: biochemical. The following applies: 100 μM ATP.
Text: as §3

The target of another experiment is CHK1 (Homo sapiens (Human), UniProt O14757). Description: Selectivity dose-response kinase assay, CHK1. It counts as biochemical. The following applies: 100 μM ATP.
Text: as §3

The target of the next experiment is CAMKK2 (Homo sapiens (Human), UniProt Q96RR4). Description: Selectivity dose-response kinase assay, CAMKK2. It counts as biochemical. As to conditions: 100 μM ATP.
Text: as §3

MELK, sequence (Q14680 1-340): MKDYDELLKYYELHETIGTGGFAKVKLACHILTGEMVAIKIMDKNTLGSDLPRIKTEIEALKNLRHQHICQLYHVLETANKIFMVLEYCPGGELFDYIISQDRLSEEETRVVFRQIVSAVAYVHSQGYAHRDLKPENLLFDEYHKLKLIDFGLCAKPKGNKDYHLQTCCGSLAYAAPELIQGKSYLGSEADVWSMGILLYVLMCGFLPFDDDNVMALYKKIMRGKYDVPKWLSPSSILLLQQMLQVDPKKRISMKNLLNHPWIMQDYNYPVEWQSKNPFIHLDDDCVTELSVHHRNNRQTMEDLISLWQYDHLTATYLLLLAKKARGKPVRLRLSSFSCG
CHK1, sequence (O14757 whole entry): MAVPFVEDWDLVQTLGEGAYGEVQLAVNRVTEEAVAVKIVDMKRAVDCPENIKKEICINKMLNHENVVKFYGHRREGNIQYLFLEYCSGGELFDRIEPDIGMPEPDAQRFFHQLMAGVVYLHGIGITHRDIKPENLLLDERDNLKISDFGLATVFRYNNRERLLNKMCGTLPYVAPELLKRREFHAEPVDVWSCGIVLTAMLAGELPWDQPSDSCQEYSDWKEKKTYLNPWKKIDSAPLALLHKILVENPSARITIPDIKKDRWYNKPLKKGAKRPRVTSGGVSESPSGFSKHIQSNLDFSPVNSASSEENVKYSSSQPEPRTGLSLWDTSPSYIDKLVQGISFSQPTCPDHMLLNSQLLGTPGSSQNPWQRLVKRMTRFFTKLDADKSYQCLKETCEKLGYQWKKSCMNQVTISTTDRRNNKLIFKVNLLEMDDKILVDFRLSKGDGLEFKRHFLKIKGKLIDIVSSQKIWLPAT
NUAK1, sequence (O60285 whole entry): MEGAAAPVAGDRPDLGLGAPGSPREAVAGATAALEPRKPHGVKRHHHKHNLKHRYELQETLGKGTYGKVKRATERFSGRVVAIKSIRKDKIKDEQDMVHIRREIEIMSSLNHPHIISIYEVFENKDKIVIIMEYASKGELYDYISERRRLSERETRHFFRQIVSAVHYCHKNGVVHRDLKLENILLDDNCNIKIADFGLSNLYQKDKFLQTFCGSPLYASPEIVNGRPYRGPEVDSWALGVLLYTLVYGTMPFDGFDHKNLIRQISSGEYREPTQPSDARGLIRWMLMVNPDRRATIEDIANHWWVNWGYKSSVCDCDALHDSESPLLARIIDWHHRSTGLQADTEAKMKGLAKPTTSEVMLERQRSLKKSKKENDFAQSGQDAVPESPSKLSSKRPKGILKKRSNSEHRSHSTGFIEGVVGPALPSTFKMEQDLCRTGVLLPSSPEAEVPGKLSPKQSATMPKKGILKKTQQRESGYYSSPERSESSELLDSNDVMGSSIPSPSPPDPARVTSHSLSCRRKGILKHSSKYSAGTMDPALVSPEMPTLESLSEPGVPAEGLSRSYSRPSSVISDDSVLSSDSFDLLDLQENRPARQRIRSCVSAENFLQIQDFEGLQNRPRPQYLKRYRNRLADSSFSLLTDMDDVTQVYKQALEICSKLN
ERK2, sequence (P63086 whole entry): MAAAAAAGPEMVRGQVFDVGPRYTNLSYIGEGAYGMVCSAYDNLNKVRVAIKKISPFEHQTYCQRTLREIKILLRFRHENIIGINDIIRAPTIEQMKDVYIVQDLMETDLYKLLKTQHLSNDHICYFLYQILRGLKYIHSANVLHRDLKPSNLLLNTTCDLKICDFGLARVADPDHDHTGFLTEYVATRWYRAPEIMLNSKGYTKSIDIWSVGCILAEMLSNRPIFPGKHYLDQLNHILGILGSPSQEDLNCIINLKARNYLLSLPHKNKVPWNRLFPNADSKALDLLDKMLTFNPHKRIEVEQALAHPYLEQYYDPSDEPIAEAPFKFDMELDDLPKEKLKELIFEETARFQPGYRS
AMPK, sequence (P54645 whole entry, looked up): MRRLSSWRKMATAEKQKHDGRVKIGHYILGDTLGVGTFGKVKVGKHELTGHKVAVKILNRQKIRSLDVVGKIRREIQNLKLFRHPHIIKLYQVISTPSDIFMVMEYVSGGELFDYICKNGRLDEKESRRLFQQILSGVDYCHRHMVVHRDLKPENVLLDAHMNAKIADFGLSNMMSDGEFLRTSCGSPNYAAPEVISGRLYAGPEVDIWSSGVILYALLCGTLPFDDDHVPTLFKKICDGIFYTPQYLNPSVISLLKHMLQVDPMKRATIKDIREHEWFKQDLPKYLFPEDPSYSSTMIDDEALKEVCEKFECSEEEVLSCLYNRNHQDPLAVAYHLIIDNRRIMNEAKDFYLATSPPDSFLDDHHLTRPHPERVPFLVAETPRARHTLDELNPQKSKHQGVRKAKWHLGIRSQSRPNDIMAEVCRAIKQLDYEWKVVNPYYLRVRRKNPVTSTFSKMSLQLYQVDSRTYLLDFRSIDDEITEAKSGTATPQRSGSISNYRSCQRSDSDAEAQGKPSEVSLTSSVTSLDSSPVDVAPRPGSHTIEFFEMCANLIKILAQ
AMPK, sequence (P80386 whole entry partner, looked up): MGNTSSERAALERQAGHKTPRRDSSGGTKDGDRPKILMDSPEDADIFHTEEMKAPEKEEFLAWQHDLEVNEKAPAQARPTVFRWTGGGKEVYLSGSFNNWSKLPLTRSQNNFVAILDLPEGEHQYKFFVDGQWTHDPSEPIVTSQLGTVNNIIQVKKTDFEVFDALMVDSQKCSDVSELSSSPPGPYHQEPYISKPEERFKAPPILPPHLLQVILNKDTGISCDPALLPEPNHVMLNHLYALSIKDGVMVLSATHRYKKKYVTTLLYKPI
AMPK, sequence (P80385 whole entry partner, looked up): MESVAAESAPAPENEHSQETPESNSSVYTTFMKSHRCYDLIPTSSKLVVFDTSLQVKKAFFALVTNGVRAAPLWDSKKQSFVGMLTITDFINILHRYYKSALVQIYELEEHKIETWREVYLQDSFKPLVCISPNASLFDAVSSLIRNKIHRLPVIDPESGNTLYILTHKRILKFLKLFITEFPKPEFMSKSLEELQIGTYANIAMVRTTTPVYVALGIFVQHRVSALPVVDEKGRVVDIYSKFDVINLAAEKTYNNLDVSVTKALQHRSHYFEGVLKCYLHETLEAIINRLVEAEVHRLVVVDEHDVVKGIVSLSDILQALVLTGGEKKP
CAMKK2, sequence (Q96RR4 whole entry, species assumed): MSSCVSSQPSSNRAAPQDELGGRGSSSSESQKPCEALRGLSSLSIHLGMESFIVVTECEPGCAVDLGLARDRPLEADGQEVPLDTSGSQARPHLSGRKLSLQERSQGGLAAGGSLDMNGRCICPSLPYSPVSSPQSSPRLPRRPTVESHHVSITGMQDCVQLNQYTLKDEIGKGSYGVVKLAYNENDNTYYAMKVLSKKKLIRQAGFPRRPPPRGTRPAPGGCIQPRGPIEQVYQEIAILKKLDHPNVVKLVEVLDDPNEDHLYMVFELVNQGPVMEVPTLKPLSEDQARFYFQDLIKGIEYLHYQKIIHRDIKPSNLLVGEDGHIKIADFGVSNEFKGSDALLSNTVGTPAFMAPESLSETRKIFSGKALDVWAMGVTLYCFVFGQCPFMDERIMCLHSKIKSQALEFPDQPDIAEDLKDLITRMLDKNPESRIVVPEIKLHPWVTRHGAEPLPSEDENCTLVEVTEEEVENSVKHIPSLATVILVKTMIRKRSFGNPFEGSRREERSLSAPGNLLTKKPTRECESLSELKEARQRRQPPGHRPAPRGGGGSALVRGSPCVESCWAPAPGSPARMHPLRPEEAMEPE

For the molecule `CN1CCN(CC(=O)N(C)c2ccc(N/C(=C3\C(=O)Nc4ccc(F)cc43)c3ccccc3)cc2)CC1` [Compound 19, (Z)—N-(4-(((5-Fluoro-2-oxoindolin-3-ylidene)(phenyl)methyl)amino)phenyl)-N-methyl-2-(4-methylpiperazin-1-yl)acetamide], the “proliferation of MCF10A cells” value in the experiment with MCF10A cells is “inhibited all cell lines”. For the same molecule, the “proliferation of SUM-159 cells” value in the experiment with SUM-159 cells was “inhibited all cell lines”. Also, the “proliferation of BT-549 cells” value with BT-549 cells is “inhibited all cell lines”. In addition, at MELK (Ki calculated using Equation 4, [ATP] = 40 μM, KM app (ATP) = 6 μM, read-out: Ki ± SE), the Ki is 3.1 nM and 0.68 nM. In addition, the 50% inhibitory concentration (IC50) at MELK (indolinone derivatives, 40 μM ATP, read-out: IC50) is 24 ± 4.7 nM. Besides, the “proliferation of HCC70 cells” value in the experiment with HCC70 cells was “inhibited all cell lines”.

Consider `COC(=O)c1ccc2c(c1)/C(=C(/Nc1ccc(N(C)C(=O)CN3CCN(C)CC3)cc1)c1ccccc1)C(=O)N2` [Compound 17, Methyl(Z)-3-(((4-(N-methyl-2-(4-methylpiperazin-1-yl)acetamido)phenyl)amino)(phenyl)methylene)-2-oxoindoline-5-carboxylate], for which the entries for the “proliferation of MCF10A cells” value in the experiment with MCF10A cells and in the experiment with MCF10A cells (at 10 μM) were “little effect” and “remained largely unaffected”, respectively. The Ki on NUAK1 was 11 ± 0.86 nM; on AMPK it was 9.2 ± 1.7 nM; at ERK2, 3000 ± 1300 nM; on CHK1 it was 7 ± 0.17 nM; at CAMKK2, 31 ± 11 nM. In addition, the “proliferation of SUM-159 cells” value with SUM-159 cells is listed as “clearly impacted”. In the experiment with BT-549 cells, the “proliferation of BT-549 cells” value is given as “clearly impacted”. Further, in the experiment on HCC70 cells, the “proliferation of HCC70 cells” value was “clearly impacted”.

Source of the values: patent US10981896B2, “Indolinone derivatives as inhibitors of maternal embryonic leucine zipper kinase” (BOARD OF REGENTS, THE UNIVERSITY OF TEXAS SYSTEM, priority 2017, dated 2021).
